From patent EP1208096B1, “SUBSTITUTED PYRIDAZINES AND FUSED PYRIDAZINES WITH ANGIOGENESIS INHIBITING ACTIVITY” (Bayer Corporation, priority 1999, dated 2001)
Where a name gives a salt, the structure may show the parent alone.

Key:
[1] = molecular target: T1, cytosolic kinase domain of KDR kinase (Homo sapiens, UniProt P35968); experiment: KDR Assay (ELISA, phosphorylation of poly(Glu4;Tyr1)); assay type: biochemical; details: 3.3 µM ATP, 60 minutes at room temperature, 30 ng KDR kinase domain
T1 construct: The cytosolic kinase domain of KDR kinase was expressed as a 6His fusion protein in Sf9 insect cells; 6His; made in house; host or cells: Sf9 insect cells
Method: The cytosolic kinase domain of KDR kinase was expressed as a 6His fusion protein in Sf9 insect cells. The KDR kinase domain fusion protein was purified over a Ni^++ chelating column. Ninety-six well ELISA plates were coated with 5 µg poly(Glu4;Tyr1) (Sigma Chemical Co., St Louis, MO) in 100 µl HEPES buffer (20 mM HEPES, pH 7.5, 150 mM NaCl, 0.02% Thimerosal) at 4° overnight. Before use, the plate was washed with HEPES, NaCl buffer and the plates were blocked with 1% BSA, 0.1% Tween 20 in HEPES, NaCl buffer.
Test compounds were serially diluted in 100% DMSO from 4 mM to 0.12 µM in half-log dilutions. These dilutions were further diluted twenty fold in H2O to obtain compound solutions in 5% DMSO. Following loading of the assay plate with 85 µl of assay buffer (20 mM HEPES, pH 7.5, 100 mM KCl, 10 mM MgCl2, 3 mM MnCl2, 0.05% glycerol, 0.005% Triton X-100, 1 mM -mercaptoethanol, with or without 3.3 µM ATP), 5 µl of the diluted compounds were added to a final assay volume of 100 µl. Final concentrations were between 10 µM, and 0.3 nM in 0.25% DMSO. The assay was initiated by the addition of 10µl (30 ng) of KDR kinase domain.
The assay was incubated with test compound or vehicle alone with gentle agitation at room temperature for 60 minutes. The wells were washed and phosphotyrosines (PY) were probed with an anti-phosphotyrosine (PY), mAb clone 4G10 (Upstate Biotechnology, Lake Placid, NY). PY/anti-PY complexes were detected with an anti-mouse IgG/HRP conjugate (Amersham International plc, Buckinghamshire, England). Phosphotyrosine was quantitated by incubating with 100 µl 3, 3', 5, 5' tetramethylbenzidine solution (Kirkegaard and Perry, TMB Microwell 1 Component peroxidase substrate). Color development was arrested by the addition of 100 µl 1% HCl-based stop solution (Kirkegaard and Perry, TMB I Component Stop Solution).
Optical densities were determined spectrophotometrically at 450 nm in a 96-well plate reader, SpectraMax 250 (Molecular Devices). Background (no ATP in assay) OD values were subtracted from all ODs and the percent inhibition was calculated according to the equation: % Inhibition =((OD(vehicle control) - OD(with compound)) X 100)/(OD(vehicle control) - OD(no ATP added)) [formula]
The IC50 values were determined with a least squares analysis program using compound concentration versus percent inhibition. Compounds that have IC50 < 100 nM in this assay include those of Examples 1, 2, 4, 5, 6, 7, 10, 11, 12, 13, 14, 15, 16 and 23. Compounds that have IC50 values between 100 nM and 1,000 nM include those of examples 8, 9 and 22. Those that have measured IC50 values > 1,000 nM include those of examples 3, 17, 18 and 21.

[2] = molecular target: T2, NIH3T3 cells expressing the full length KDR receptor (Homo sapiens, UniProt P35968); experiment: Cell mechanistic assay - Inhibition of 3T3 KDR phosphorylation; assay type: cell-based; details: VEGF (30 ng / ml) for 10 minutes after 30 minutes with compound; KDR phosphotyrosine ELISA
T2 construct: NIH3T3 cells expressing the full length KDR receptor; expressed in transfected cells; host or cells: NIH3T3 cells (G418 selection)
Method: NIH3T3 cells expressing the full length KDR receptor were grown in DMEM (Life Technologies, Inc., Grand Island, NY) supplemented with 10% newborn calf serum, low glucose, 25 mM /L sodium pyruvate, pyridoxine hydrochloride and 0.2 mg/ ml of G418 (Life Technologies Inc., Grand Island, NY). The cells were maintained in collagen I-coated T75 flasks (Becton Dickinson Labware, Bedford, MA) in a humidified 5% CO2 atmosphere at 37°C.
Fifteen thousand cells were plated into each well of a collagen I-coated 96-well plate in the DMEM growth medium. Six hours later, the cells were washed and the medium was replaced with DMEM without serum. After overnight culture to quiesce the cells, the medium was replaced by Dulbecco's phosphate-buffered saline (Life Technologies Inc., Grand Island, NY) with 0.1% bovine albumin (Sigma Chemical Co., St Louis, MO). After adding various concentrations (0-300 nM) of test compounds to the cells in 1% final concentration of DMSO, the cells were incubated at room temperature for 30 minutes. The cells were then treated with VEGF (30 ng / ml) for 10 minutes at room temperature. Following VEGF stimulation, the buffer was removed and the cells were lysed by addition of 150 µl of extraction buffer (50 mM Tris, pH 7.8, supplemented with 10% glycerol, 50 mM BGP, 2 mM EDTA, 10 mM NaF, 0.5 mM NaVO4, and 0.3% TX-100) at 4°C for 30 minutes.
To assess receptor phosphorylation, 100 microliters of each cell lysate was added to the wells of an ELISA plate precoated with 300 ng of antibody C20 (Santa Cruz Biotechnology, Inc., Santa Cruz , CA). Following a 60-minute incubation, the plate was washed and bound KDR was probed for phosphotyrosine using an anti-phosphotyrosine mAb clone 4G10 (Upstate Biotechnology, Lake Placid, NY). The plate was washed and wells were incubated with anti-mouse IgG/HRP conjugate (Amersham International plc, Buckinghamshire, England) for 60 minutes. Wells were washed and phosphotyrosine was quantitated by addtion of 100 µl per well of 3,3',5,5' tetramethylbenzidine (Kirkegaard and Perry, TMB Microwell 1 Component peroxidase substrate) solution. Color development was arrested by the addition of 100 µl 1% HCl based stop solution (Kirkegaard and Perry, TMB 1 Component Stop Solution).
Optical densities (OD) were determined spectrophotometrically at 450 nm in a 96-well plate reader (SpectraMax 250, Molecular Devices). Background (no VEGF added) OD values were subtracted from all ODs and percent inhibition was calculated according to the equation: % Inhibition =((OD(VEGF control) - OD(with test compound)) X 100)/(OD(VEGF control) - OD(no VEGF added)) [formula]
IC50s were determined with a least squares analysis program using compound concentration versus percent inhibition. Compounds that have IC50 < 20 nM in this assay include those of Examples 2, 6, 7, 11, 15 and 16. Compounds that have IC50 values between 20 nM and 50 nM include those of examples 1, 4, 5, 8, 10, 12, 13 and 14. Those that have measured IC50 values > 50 nM include those of examples 9 and 21.

T1 sequence (P35968 834-1162 limits assumed): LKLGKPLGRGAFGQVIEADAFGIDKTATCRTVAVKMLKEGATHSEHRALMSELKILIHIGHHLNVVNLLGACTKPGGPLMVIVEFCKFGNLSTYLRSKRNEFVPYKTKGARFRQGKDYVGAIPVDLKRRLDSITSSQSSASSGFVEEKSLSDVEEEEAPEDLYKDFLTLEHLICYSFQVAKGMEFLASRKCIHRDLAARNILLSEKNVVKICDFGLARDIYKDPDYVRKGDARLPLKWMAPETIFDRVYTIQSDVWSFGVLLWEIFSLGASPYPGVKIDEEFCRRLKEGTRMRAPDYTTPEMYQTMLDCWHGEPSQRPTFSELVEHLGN
T2 sequence (P35968 20-1356): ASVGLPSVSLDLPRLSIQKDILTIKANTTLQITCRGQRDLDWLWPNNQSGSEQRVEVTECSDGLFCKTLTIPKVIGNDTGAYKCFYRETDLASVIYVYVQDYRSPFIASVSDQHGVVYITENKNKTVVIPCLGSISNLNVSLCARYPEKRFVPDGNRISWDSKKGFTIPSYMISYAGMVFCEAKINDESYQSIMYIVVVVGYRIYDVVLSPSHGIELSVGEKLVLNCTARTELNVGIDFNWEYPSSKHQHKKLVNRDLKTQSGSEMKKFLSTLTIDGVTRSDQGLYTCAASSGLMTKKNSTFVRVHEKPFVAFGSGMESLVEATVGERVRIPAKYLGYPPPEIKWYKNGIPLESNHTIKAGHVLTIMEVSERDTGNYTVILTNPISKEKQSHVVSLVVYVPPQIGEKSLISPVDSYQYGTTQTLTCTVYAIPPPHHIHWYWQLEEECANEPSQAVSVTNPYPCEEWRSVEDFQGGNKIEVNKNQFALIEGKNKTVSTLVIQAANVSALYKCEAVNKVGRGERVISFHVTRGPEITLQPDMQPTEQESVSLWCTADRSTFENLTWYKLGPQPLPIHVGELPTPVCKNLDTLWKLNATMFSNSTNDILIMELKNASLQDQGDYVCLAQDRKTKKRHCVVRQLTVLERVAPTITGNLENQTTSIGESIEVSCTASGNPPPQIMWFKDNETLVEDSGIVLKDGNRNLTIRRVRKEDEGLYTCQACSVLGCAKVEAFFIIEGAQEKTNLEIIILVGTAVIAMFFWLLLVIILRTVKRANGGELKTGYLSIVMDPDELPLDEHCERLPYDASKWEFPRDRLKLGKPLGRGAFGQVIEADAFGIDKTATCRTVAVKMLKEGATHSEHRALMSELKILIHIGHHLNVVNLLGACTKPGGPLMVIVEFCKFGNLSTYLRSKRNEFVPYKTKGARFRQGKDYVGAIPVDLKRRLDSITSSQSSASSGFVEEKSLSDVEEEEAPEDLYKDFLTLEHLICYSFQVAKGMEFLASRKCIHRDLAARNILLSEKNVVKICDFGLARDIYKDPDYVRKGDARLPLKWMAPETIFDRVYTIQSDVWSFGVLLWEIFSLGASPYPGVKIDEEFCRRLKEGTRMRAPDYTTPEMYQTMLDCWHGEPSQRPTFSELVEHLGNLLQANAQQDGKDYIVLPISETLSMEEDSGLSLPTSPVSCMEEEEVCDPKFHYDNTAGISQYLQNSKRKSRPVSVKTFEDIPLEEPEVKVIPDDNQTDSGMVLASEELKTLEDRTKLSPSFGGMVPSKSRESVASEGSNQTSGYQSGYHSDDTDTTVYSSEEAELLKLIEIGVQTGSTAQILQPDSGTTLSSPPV

Compound	IC50 [1] [nM]	IC50 [2] [nM]
Clc1ccc(Nc2nnc(OCc3cccnc3)c3ccccc23)cc1 [Example 3, 1-(4-chlorophenylamino)-4-(3-pyridylmethoxy)phthalazine]	> 1000	
CNC(=O)c1cc(COc2nnc(Nc3ccc(Cl)cc3)c3ccccc23)ccn1 [Example 4, 4-[4-(4-Chlorophenylamino)phthalazin-1-yloxymethyl]pyridin-2-yl carboxylic acid methylamide]	< 100	20 to 50
NC(=O)c1cc(COc2nnc(Nc3ccc(Cl)cc3)c3ccccc23)ccn1 [Example 5, 4-[4-(4-Chlorophenylamino)phthalazin-1-yloxymethyl]pyridin-2-yl carboxylic acid amide]		20 to 50
CNC(=O)c1cc(Cc2nnc(Nc3cccc(Br)c3)c3ccccc23)ccn1 [Example 6, 4-[4-(3-Bromophenylamino)phthalazin-1-ylmethyl]-pyridin-2-yl carboxylic acid methylamide]	< 100	< 20
NC(=O)c1cc(Cc2nnc(Nc3cccc(Br)c3)c3ccccc23)ccn1 [Example 7, 4-[4-(3-Bromophenylamino)phthalazin-1-ylmethyl]-pyridin-2-yl carboxylic acid amide]	< 100	< 20
Clc1ccc(Nc2nnc(Cc3ccnc(-c4ccccc4)c3)c3ccccc23)cc1 [Example 8, 1-(4-chlorophenylamino)-4-[(2-phenyl-4-pyridyl)methyl]phthalazine]	100 to 1000	20 to 50
c1ccc2c(Nc3ccc(Oc4ccncc4)cc3)nnc(Cc3ccncc3)c2c1 [Example 9, 1-[4-(4-pyridyloxy)phenylamino]-4-(4-pyridylmethyl)phthalazine]	100 to 1000	> 50
c1ccc2c(Nc3ccc4c(c3)CCC4)nnc(Cc3ccncc3)c2c1 [Example 10, 1-(indan-5-ylamino)-4-(4-pyridylmethyl)phthalazine]	< 100	20 to 50
CNC(=O)c1cc(Cc2nnc(Nc3ccc(Cl)cc3)c3ccccc23)ccn1 [Example 11, 4-[4-(4-Chlorophenylamino)phthalazin-1-ylmethyl]pyridin-2-yl carboxylic acid methylamide dihydrochloride]		< 20
CNC(=O)c1cc(Cc2nnc(Nc3ccc(Cl)cc3)c3ccccc23)ccn1 [Example 12, 4-[4-(4-Chlorophenylamino)phthalazin-1-ylmethyl]pyridin-2-yl carboxylic acid methylamide dimethanesulfonate]		20 to 50
NC(=O)c1cc(Cc2nnc(Nc3ccc(Cl)cc3)c3ccccc23)ccn1 [Example 13, 4-[4-(4-Chlorophenylamino)phthalazin-1-ylmethyl]pyridin2-yl carboxylic acid amide dihydrochloride]	< 100	20 to 50
NC(=O)c1cc(Cc2nnc(Nc3ccc(Cl)cc3)c3ccccc23)ccn1 [Example 14, 4-[4-(4-Chlorophenylamino)phthalazin-1-ylmethyl]pyridin-2-yl carboxylic acid amide dimethanesulfonate]		20 to 50
NC(=O)c1cc(COc2nnc(Nc3ccc(Cl)cc3)c3ccccc23)ccn1 [Example 15, 4-[4-(4-Chlorophenylamino)phthalazin-1-yloxymethyl]pyridin-2-yl carboxylic acid amide dihydrochloride]	< 100	< 20
NC(=O)c1cc(COc2nnc(Nc3ccc(Cl)cc3)c3ccccc23)ccn1 [Example 16, 4-[4-(4-Chlorophenylamino)phthalazin-1-yloxymethyl]pyridin-2-yl carboxylic acid amide dimethanesulfonate]		< 20
Clc1ccc(Nc2nnc(Sc3nnc(-c4ccncc4)[nH]3)c3ccccc23)cc1 [Example 17, 1-(4-chlorophenylamino)-4-[5-(4-pyridyl)-1H-1,2,4-triazolyl-3-ylthio]phthalazine]	> 1000	
CC(C)c1ccc(Nc2nnc(Sc3nnc(-c4ccncc4)[nH]3)c3ccccc23)cc1 [Example 18, 1-(4-isopropylphenylamino)-4-[5-(4-pyridyl)-1H-1,2,4-triazolyl-3-ylthio]phthalazine]	> 1000	
N#CC(c1ccncc1)c1nnc(Nc2ccc3c(c2)CCC3)c2ccccc12 (centres unmarked) [Example 22, 1-(indan-5-ylamino)-4-(4-pyridylcyanomethyl)phthalazine]	100 to 1000	
c1ccc2c(Nc3ccc4ncsc4c3)nnc(Cc3ccncc3)c2c1 [Example 23, 1-(benzothiazol-6-ylamino)-4-(4-pyridylmethyl)phthalazine]	< 100	
